# Reference: patent US20080026986A1, “REVERSAL OF THE SUPPRESSIVE FUNCTION OF SPECIFIC T CELLS VIA TOLL-LIKE RECEPTOR 8 SIGNALING” (priority 2006, published 2008)
# “Also recorded” adds a separate entry of the source.
# How the values were obtained:
# PTIL194 and PTIL237 = test: Reversal of suppressive function of PTIL194 and PTIL237 by TLR ligands (naïve CD4+ T cell proliferation); assay type: cell-based, human; conditions: naïve CD4+ T cells:Treg 10:1, OKT3-coated plates, FIG. 5A
# Method: (§1) (C) Expression of TLR8 mRNA in CD4^+ Treg and CD8^+ Treg cell clones generated from PTIL194 by RT-PCR.
# (§2) Naïve CD4^+ T cells were purified from PBMCs by using microbeads (Miltenyi Biotec). Naïve CD4^+ T cells (10^5/well) were cultured with regulatory T cells at a ratio of 10:1 in OKT3 (2 μg/ml)-coated, U bottomed 96-well plates containing the following TLR ligands. […] CpG-A (3 μg/ml), CpG-B (3 μg/ml) and poly-G3 oligonucleotides (3 μg/ml) were synthesized by Integrated DNA Technologies (Coralville, Iowa). All experiments were performed at least more than once.
# CD4^+ CD25-T cells (2×10^5) purified from human PBMCs by antibody-coated beads (Dynal, Inc.) were cultured for 60 hours in U-bottomed 96-well plates containing 5×104 CD3-depleted APCs, 0.1 μg/ml anti-CD3 mAb, and different numbers of CD4^+ regulatory or effector T cells. The proliferation of responder T cells was determined by the incorporation of [H^3]thymidine for the last 16 hours of culture, as previously described (Wang et al., 2004; Wang et al., 2005). Cells were harvested and the radioactivity counted in a scintillation counter. All experiments were performed in triplicate. Transwell experiments were performed in 24-well plates with a pore size of 0.4 μm (Coming Costar, Cambridge, Mass.). 2×10^5 the freshly purified naïve CD4^+ T cells were cultured in the outer wells of 24-well plate in medium containing 0.1 μg/ml anti-CD3 antibody and 2×10^5 APCs. Equal numbers of regulatory T cells or nonregulatory T cells were added into the inner wells in the same medium containing 0.5 μg/ml anti-CD3 antibody and 2×10^5 APCs. After 56 hours of culture, the cells in the outer and inner wells were harvested separately and transferred to 96-well plates. [H^3]thymidine was added, and the cells were cultured for an additional 16 hours before harvest for the radioactivity counting with a liquid scintillation counter.
# as §2, with “use of” for “using”, “following” for “following TLR”, “poly-G” for “poly-G3”, “Iowa).” for “Iowa). All experiments were performed at least more than once.”
# [1] = tested on: naturally occurring CD4+ CD25+ Treg cells; test: Reversal of suppressive function of naturally occurring CD4+ CD25+ Treg cells; assay type: cell-based
# CD8+ Treg cells = test: Naïve T cell proliferation assay with CD8+ Treg cell populations/clones with or without TLR ligands; assay type: cell-based, human; conditions: prostate tumor-derived (PTIL194); FIGS. 5A, 5B
# Method: as §1
# (§3) To test this possibility, the suppressive effects of CD4^+ and CD8^+ Treg cells were examined on naïve T cell proliferation in a functional assay, with or without TLR8 ligands (Poly-G2 and ssRNA40) or ligands for other TLRs.
# (§4) CD4^+ CD25-T cells (2×10^5) purified from human PBMCs by antibody-coated beads (Dynal, Inc.) were cultured for 60 hours in U-bottomed 96-well plates containing 5×104 CD3-depleted APCs, 0.1 μg/ml anti-CD3 mAb, and different numbers of CD4^+ regulatory or effector T cells. The proliferation of responder T cells was determined by the incorporation of [H^3]thymidine for the last 16 hours of culture, as previously described (Wang et al., 2004; Wang et al., 2005). Cells were harvested and the radioactivity counted in a scintillation counter. All experiments were performed in triplicate. Transwell experiments were performed in 24-well plates with a pore size of 0.4 μm (Coming Costar, Cambridge, Mass.). 2×10^5 the freshly purified naïve CD4^+ T cells were cultured in the outer wells of 24-well plate in medium containing 0.1 μg/ml anti-CD3 antibody and 2×10^5 APCs. […] [H^3]thymidine was added, and the cells were cultured for an additional 16 hours before harvest for the radioactivity counting with a liquid scintillation counter. […]
# CD4+ Treg cells = test: Naïve T cell proliferation assay with CD4+ Treg cell populations/clones with or without TLR ligands; assay type: cell-based, human; conditions: prostate tumor-derived (PTIL194); FIGS. 5A, 5B
# Method: as §1, §3, §4
# BTIL31 γδ1 Treg cells [2] = test: Naïve CD4+ T cell proliferation ([3H]-thymidine) in coculture with BTIL31 cells plus TLR ligands; assay type: cell-based, human; conditions: naïve CD4+ T cells:BTIL31 10:1, OKT3-coated plates; FIG. 13A
# Method: (§5) In addition, naïve CD4^+ T cells were cultured in the presence of supernatants derived from BTIL31 cells pre-treated with or without the indicated TLR ligands. The proliferation of naïve CD4^+ T cells was determined by [^3H]-thymidine incorporation assay described herein. […] CFSE-labeled Naïve CD4^+ T cells cocultured with BTIL31 cells or its clones in the presence or absence of Poly-G3 in OKT3-coated 24-well plates. After 3 days of culture, cells were harvested and analyzed for divisions by FACS gated on the CFSE-labeled cells. CFSE-labeled Naïve CD4^+ T cells alone served as a control. […] BTIL31 cells were cultured in the presence or absence of Poly-G3 for 2 days, and then tested the ability of Poly-G3-treated and untreated BTIL31 cells to kill BC31 autologous tumor cells.
# as §2, with “once. […]” for “once.”
# BTIL31 γδ1 Treg cells [3] = test: Killing of BC31 autologous tumor cells by Poly-G3-treated BTIL31 cells; assay type: cell-based, human; conditions: BTIL31 cultured with Poly-G3 for 2 days; FIG. 13C
# Method: (A). Reversal of the suppressive function of γδ 1 T cells by TLR8 ligands, but not by ligands for other TLRs. naïve CD4^+ T cells were cultured with BTIL31 cells at the ratio of 10:1 in the U bottom 96-well plates pre-coated with OKT3 in the presence of different TLR ligands: LPS, CpG-A, CpG-B, Imiquimod-R837, loxoribine, poly (I: C), ssRNA40/LyoVec, RNA33/LyoVec, pam3CSK4, flagellin and Poly-G3. In addition, naïve CD4^+ T cells were cultured in the presence of supernatants derived from BTIL31 cells pre-treated with or without the indicated TLR ligands. The proliferation of naïve CD4^+ T cells was determined by [^3H]-thymidine incorporation assay described herein. Results are one representative data of three independent experiments. (B) Restoration of CFSE-naïve CD4^+ T cell division by Poly-G3 oligonucleotides. CFSE-labeled Naïve CD4^+ T cells cocultured with BTIL31 cells or its clones in the presence or absence of Poly-G3 in OKT3-coated 24-well plates. After 3 days of culture, cells were harvested and analyzed for divisions by FACS gated on the CFSE-labeled cells. CFSE-labeled Naïve CD4^+ T cells alone served as a control. (C) Poly-G treatment had no effect on TRAIL-mediated killing activity. BTIL31 cells were cultured in the presence or absence of Poly-G3 for 2 days, and then tested the ability of Poly-G3-treated and untreated BTIL31 cells to kill BC31 autologous tumor cells. […]
# BTIL31 γδ1 Treg cells [4] = test: CFSE-labeled naïve CD4+ T cell division in coculture with BTIL31 cells or clones; assay type: cell-based, human; conditions: coculture with BTIL31 bulk cells or clones, FACS, FIG. 13B
# Method: as §5
# (§6) To test whether the suppressive function of BTIL31 γδ1 Treg cells could be reversed by TLR-8 ligands, cells were treated with a panel of TLR ligands and then test their ability to suppress naïve T cell proliferation. […] After 48 h, CFSE-labeled cells were gated for FACS analysis.
# BTIL31 γδ1 Treg cells [5] = test: Naïve CD4+ T cell proliferation with supernatants from TLR ligand-treated BTIL31 cells; assay type: cell-based, human; conditions: FIG. 13A
# Method: as §5, §6
compound,measurement,setting,value
"CC(C)Cn1cnc2c(N)nc3ccccc3c21 [imiquimod, Imiquimod]",Restoration of Treg cell suppressed proliferation of naïve CD4+ T cells,PTIL194 and PTIL237,no effect
same,Effect on naturally occurring CD4+ CD25+ Treg cells,[1],little or no effect
C=CCn1c(=O)n([C@@H]2O[C@H](CO)[C@@H](O)[C@H]2O)c2nc(N)[nH]c(=O)c21 [loxoribine],Restoration of Treg cell suppressed proliferation of naïve CD4+ T cells,PTIL194 and PTIL237,no effect
AAG*GA [Poly-G2],Restoration of Treg cell suppressed proliferation of naïve CD4+ T cells,PTIL194 and PTIL237,Restoration
same,Reversal of suppressive function of CD8+ Treg-containing cell populations and clones,CD8+ Treg cells,Reversal of suppressive function
same,Reversal of suppressive function of CD4+ Treg-containing cell populations and Treg cell clones,CD4+ Treg cells,abolished; also recorded: Reversal of suppressive function
AG*G*GA [Poly-G3],Reversal of the suppressive function of BTIL31 γδ1 Treg cells (proliferation of naïve CD4+ T cells),BTIL31 γδ1 Treg cells [2],reverse the suppressive function
same,Effect on TRAIL-mediated killing of BC31 tumor cells by BTIL31 cells,BTIL31 γδ1 Treg cells [3],no effect
same,Restoration of proliferation or division of CFSE-labeled naïve CD4+ T cells,BTIL31 γδ1 Treg cells [4],Restoration
same,Restoration of proliferation or division of CFSE-labeled naïve CD4+ T cells,BTIL31 γδ1 Treg cells [4]; listed as poly-G3,completely restored
same,Effect of supernatants from ligand-treated γδ1 Treg cells on proliferation of naïve CD4+ T cells,BTIL31 γδ1 Treg cells [5],enhanced rather than inhibited
pam3CSK4,Restoration of Treg cell suppressed proliferation of naïve CD4+ T cells,PTIL194 and PTIL237,no effect
poly(I:C),Restoration of Treg cell suppressed proliferation of naïve CD4+ T cells,PTIL194 and PTIL237,no effect
